Data set [1] is described as follows: Cytotoxicity against multidrug resistant human COLO320 cells incubated for 24 hrs by MTT assay. It counts as functional, cell-based. The conditions noted are these: COLO 320, 24 h. (Formazan colour is commonly taken as a measure of viable cells.)
The target of data set [2] is T1, ATP-dependent translocase ABCB1 (Homo sapiens, UniProt P08183). The data set is described as follows: Inhibition of ABCB1 in multidrug resistant human COLO320 cells assessed as fluorescence activity ratio at 2 uM incubated for 10 mins by flow cytometry based rhodamine-123 accumulation assay (reference value: 0.62). In general terms: A flow cytometer gives signals particle by particle.
T1 sequence (P08183 whole entry): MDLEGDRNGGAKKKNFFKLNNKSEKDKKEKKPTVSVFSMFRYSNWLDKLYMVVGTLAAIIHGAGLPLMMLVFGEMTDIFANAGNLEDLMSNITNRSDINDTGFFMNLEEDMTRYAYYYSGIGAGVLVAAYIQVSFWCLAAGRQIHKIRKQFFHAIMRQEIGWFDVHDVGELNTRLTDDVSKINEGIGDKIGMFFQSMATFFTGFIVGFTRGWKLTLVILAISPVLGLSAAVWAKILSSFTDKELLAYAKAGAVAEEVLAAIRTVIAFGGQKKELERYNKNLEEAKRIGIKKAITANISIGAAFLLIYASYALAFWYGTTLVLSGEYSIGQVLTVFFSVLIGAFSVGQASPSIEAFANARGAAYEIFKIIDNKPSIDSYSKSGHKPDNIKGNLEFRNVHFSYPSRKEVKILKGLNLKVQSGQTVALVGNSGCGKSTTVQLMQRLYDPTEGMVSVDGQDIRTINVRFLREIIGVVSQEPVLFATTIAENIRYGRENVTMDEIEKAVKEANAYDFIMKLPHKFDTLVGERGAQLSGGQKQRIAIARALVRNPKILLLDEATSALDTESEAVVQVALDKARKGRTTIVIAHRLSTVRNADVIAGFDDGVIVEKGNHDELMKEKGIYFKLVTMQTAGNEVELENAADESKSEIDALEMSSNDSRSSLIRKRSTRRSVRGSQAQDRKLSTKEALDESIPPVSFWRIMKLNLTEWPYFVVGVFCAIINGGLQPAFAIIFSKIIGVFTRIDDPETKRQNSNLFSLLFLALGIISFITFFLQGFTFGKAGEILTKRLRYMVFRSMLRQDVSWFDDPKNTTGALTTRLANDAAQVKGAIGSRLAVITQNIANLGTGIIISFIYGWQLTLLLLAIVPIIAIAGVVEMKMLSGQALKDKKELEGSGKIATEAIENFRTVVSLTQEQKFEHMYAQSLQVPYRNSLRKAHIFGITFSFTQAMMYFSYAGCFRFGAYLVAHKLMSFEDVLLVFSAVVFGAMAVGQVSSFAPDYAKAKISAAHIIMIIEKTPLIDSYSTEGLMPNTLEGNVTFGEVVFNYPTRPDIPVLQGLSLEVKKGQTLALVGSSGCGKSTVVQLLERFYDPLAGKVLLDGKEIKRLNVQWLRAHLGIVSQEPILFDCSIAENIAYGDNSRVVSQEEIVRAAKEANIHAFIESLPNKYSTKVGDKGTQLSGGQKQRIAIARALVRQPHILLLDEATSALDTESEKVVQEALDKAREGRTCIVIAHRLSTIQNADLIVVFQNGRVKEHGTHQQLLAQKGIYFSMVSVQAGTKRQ

Data set [3] concerns L5178Y. Put plainly: Antiproliferative activity against chemosensitive wild type parental mouse L5178Y cells incubated for 72 hrs by MTT assay. Type of data set: functional, cell-based.
The target of data set [4] is T1, ATP-dependent translocase ABCB1. The data set is described as follows: Inhibition of human ABCB1 expressed in mouse L5178Y cells assessed as potentiation of 2 mg/ml doxorubicin-induced cytotoxicty by measuring combination index at 5:1 compound to doxorubicin ratio incubated for 48 hrs by MTT assay. It counts as cell-based.
For data set [5] the target is unchanged. Put plainly: Inhibition of human ABCB1 expressed in mouse L5178Y cells assessed as fluorescence activity ratio at 2 uM incubated for 10 mins by flow cytometry based rhodamine-123 accumulation assay (reference value: 0.78). It counts as cell-based.
For data set [6] the target is unchanged. Put plainly: Inhibition of ABCB1 in multidrug resistant human COLO320 cells assessed as fluorescence activity ratio at 0.2 uM incubated for 10 mins by flow cytometry based rhodamine-123 accumulation assay (reference value: 0.62).
In data set [7] the test system is L5178Y. The data set is described as follows: Selectivity index, ratio of antiproliferative IC50 for wild type parental mouse L5178Y cells to antiproliferative IC50 for human ABCB1 expressing mouse L5178Y cells. It counts as functional.
Data set [8] addresses T1, ATP-dependent translocase ABCB1. The data set is described as follows: Inhibition of human ABCB1 expressed in mouse L5178Y cells assessed as fluorescence activity ratio at 0.2 uM incubated for 10 mins by flow cytometry based rhodamine-123 accumulation assay (reference value: 0.78). It counts as cell-based.
Data set [9] in a line: Antiproliferative activity against multidrug resistant human COLO320 cells incubated for 72 hrs by MTT assay. It counts as functional. The conditions noted are these: COLO 320, 72 h.
For data set [10], the system named is L5178Y. The data set is described as follows: Cytotoxicity against human ABCB1 expressing mouse L5178Y cells incubated for 24 hrs by MTT assay. It counts as functional, cell-based.
Data set [11] has as its system L5178Y. Put plainly: Cytotoxicity against chemosensitive wild type parental mouse L5178Y cells incubated for 24 hrs by MTT assay. It counts as functional, cell-based.
In the next data set the test system is COLO 205. The data set is described as follows: Cytotoxicity against chemosensitive human COLO205 cells incubated for 24 hrs by MTT assay. Type of data set: functional, cell-based. The following applies: COLO 205, 24 h.
Data set [12] has as its target T1, ATP-dependent translocase ABCB1. Put plainly: Inhibition of ABCB1 in multidrug resistant human COLO320 cells assessed as fluorescence activity ratio at 20 uM incubated for 10 mins by flow cytometry based rhodamine-123 accumulation assay (reference value: 0.62).
For data set [13] the target is unchanged. Put plainly: Inhibition of human ABCB1 expressed in mouse L5178Y cells assessed as fluorescence activity ratio at 20 uM incubated for 10 mins by flow cytometry based rhodamine-123 accumulation assay (reference value: 0.78). It counts as cell-based.
In data set [14] the test system is L5178Y. The data set is described as follows: Selectivity index, ratio of cytotoxic IC50 for wild type parental mouse L5178Y cells to cytotoxic IC50 for human ABCB1 expressing mouse L5178Y cells. Type of data set: functional.
For data set [15], the system named is L5178Y. Put plainly: Antiproliferative activity against human ABCB1 expressing mouse L5178Y cells incubated for 72 hrs by MTT assay. It counts as functional, cell-based.
The nature of data set [16]: Antiproliferative activity against chemosensitive human COLO205 cells incubated for 72 hrs by MTT assay. The following applies: COLO 205, 72 h. It counts as functional, cell-based.
Data set [17] concerns the target T1, ATP-dependent translocase ABCB1. The data set is described as follows: Activation of human ABCB1 expressed in Sf9 cell membrane vesicles assessed as inorganic phosphate release at 0.8 uM to 100 uM using MgATP by colorimetric ATPase assay.
The nature of data set [18]: Selectivity index, ratio of antiproliferative IC50 for chemosensitive human COLO205 cells to antiproliferative IC50 for multidrug resistant human COLO320 cells. It counts as functional, COLO 205.
Data set [19] is described as follows: Selectivity index, ratio of cytotoxic IC50 for chemosensitive human COLO205 cells to cytotoxic IC50 for multidrug resistant human COLO320 cells. It counts as functional, COLO 205.
In data set [20] the target is T1, ATP-dependent translocase ABCB1. Put plainly: Inhibition of human ABCB1 expressed in mouse L5178Y cells assessed as potentiation of 2 mg/ml doxorubicin-induced cytotoxicty at 6:1 compound to doxorubicin ratio incubated for 48 hrs by MTT assay. Type of data set: cell-based.

This note sets out measurements from ChEMBL document CHEMBL3608294, “Epoxylathyrol Derivatives: Modulation of ABCB1-Mediated Multidrug Resistance in Human Colon Adenocarcinoma and Mouse T-Lymphoma Cells” (J Nat Prod, 2015).

pIC50: −log10 of the molar value. A value given as a limit tells only on which side of the number the result lay.

The pIC50 is −log10 of the IC50, conventionally taken in molar units.

`COc1cccc(C(=O)O[C@@H]2[C@@H]3[C@@H](OC(=O)c4cccc(OC)c4)[C@]4(CC[C@H]5[C@@H](/C=C(\C)C(=O)[C@@]3(O)C[C@@H]2C)C5(C)C)CO4)c1`: the pIC50 in data set [1] is < 4.00; in the data set on L5178Y [3], 4.61; in data set [9] it was < 4.00; in the data set on L5178Y [10], < 4.00; in the data set on L5178Y [11], 4.37; with COLO 205 it was < 4.00. Besides, the pIC50 was 4.28 in the data set with L5178Y [15] and < 4.00 in data set [16]. Besides, the Ratio in data set [2] worked out at 9.1; in data set [5] it was 60.62; in data set [6], 3.13; in data set [8], 10.45; in data set [12] it was 15.4; in data set [13] it was 63.13. For the same compound, the CI in data set [4] is on record as 0.097. In addition, the entries for the “Ratio IC50” value in the data set on L5178Y [7] and in the data set with L5178Y [14] were 0.46 and <0.42, respectively. In addition, in data set [17], the outcome was Active.
Regarding `C/C1=C\[C@@H]2[C@H](CC[C@]3(CO3)[C@H](OC(=O)c3ccc(N(C)C)cc3)[C@H]3[C@@H](OC(=O)c4ccc(N(C)C)cc4)[C@@H](C)C[C@]3(O)C1=O)C2(C)C`, the negative-log IC50 (pIC50) was 4.44 in [1]; 4.54 with L5178Y [3]; 4.67 in [9]; 4.32 with L5178Y [10]; 4.47 in the data set on L5178Y [11]; 4.65 with COLO 205. Also, the pIC50 with L5178Y [15] is 4.34; in [16] it was 4.76. The Ratio in data set [2] is listed as 3.07; in [5], 8.03; in [6], 1.02; in data set [8], 1.38; in data set [12], 12.31; in [13], 56.81. The CI in data set [4] turned out to be 0.172. Further, the “Ratio IC50” value in the data set with L5178Y [7] stood at 0.63; in data set [18], 0.8; in [19], 0.62; with L5178Y [14] it was 0.7.
As for `CO[C@H]1[C@@H]2[C@H](CC[C@]3(COC(C)=O)O[C@@H]3[C@H]3[C@@H](OC(C)=O)[C@@H](C)C[C@]3(O)C(=O)[C@@H]1C)C2(C)C`, the negative-log IC50 (pIC50) was < 4.00 in data set [1]; < 4.00 in the data set on L5178Y [3]; 4.18 in data set [9]; < 4.00 in the data set with L5178Y [10]; < 4.00 in the data set with L5178Y [11]; < 4.00 in the data set with COLO 205. In addition, the pIC50 (with L5178Y [15]; in data set [16]) was < 4.00 throughout. The Ratio came to 1.1 in data set [2], 1.16 in data set [5], 2.25 in data set [12] and 2.07 in [13]. Moreover, the “Ratio IC50” value in data set [18] is reported as >1.98. For the same compound, the CI in data set [20] was determined as 0.214.
As for `C/C1=C\[C@@H]2[C@H](CC[C@@](C)(O)[C@H](O)[C@H]3[C@@H](OC(=O)c4ccccc4)[C@@H](C)C[C@]3(O)[C@H]1O)C2(C)C`, the pIC50 is 4.28 in data set [1]; < 4.00 with L5178Y [3]; 4.43 in [9]; < 4.00 in the data set with L5178Y [10]; < 4.00 in the data set on L5178Y [11]; < 4.00 with COLO 205. Besides, the figures for the pIC50 (in the data set with L5178Y [15]; in [16]) were < 4.00 and 4.52, respectively. The Ratio in data set [2] was determined as 1.37; in data set [5], 1.45; in data set [12], 4.29; in data set [13] it was 33.19. Further, the entries for the “Ratio IC50” value in data set [18] and in [19] were 0.84 and >1.9, respectively. The CI in data set [20] worked out at 0.23.
